Measurements from patent publication US20090119801A1, “Method for preserving cut flowers, cut flower preservation kit, method for manufacturing processed cut flowers, and processed cut flowers” (SUNTORY FLOWERS LIMITED, priority 2007, published 2009).

Test: Volatilization rate of organic solvents (Table 2)
Type: physicochemical
Details: not given

| SMILES | volatilization rate (%) |
| --- | --- |
| OCCO [ethylene glycol] | 0 |
| OCC(O)CO [glycerin] | 0 |
| CC(O)CC(C)(C)O (stereo not shown) [2-methyl-2,4-pentanediol] | 3 |

Other lines, results leading:

| volatilization rate (%) | SMILES |
| --- | --- |
| 0 | CCCC(O)C(CC)CO (stereo not shown) [2-ethyl-1,3-hexanediol] |
| 0 | CC(CCO)CCO [3-methyl-1,5-pentanediol] |
| 0 | CCCCC(CC)COCCOCCO (stereo not shown) [2-[2-(2-ethylhexyloxy)ethoxy]ethanol] |
| 1 | CCCCC(CC)COCCO (stereo not shown) [2-(2-ethylhexyloxy)ethanol] |

Test: not given
Details: logP; cited from earlier work

| SMILES | partition coefficient |
| --- | --- |
| CC(C)=O [acetone] | −0.157 |
| CO [Methanol] | −0.719 |
| C1COCCO1 [1,4-dioxane] | −0.271 |
